The test system of one data set is rat plasma proteins. The data set is described as follows: Plasma protein binding by equilibrium dialysis, rat. The conditions noted are these: for Binding class / Extraction / Permeability: rat; for Bound: rat plasma diluted to 50%, 37° C.; for Bound / Extraction / Permeability: 1 μM, 4 h; for Permeability: dialysis membrane. It is filed as in vitro ADME. As to the method:
(§1) To assess protein binding, pooled samples of blood plasma diluted with phosphate buffer up to 50% were used. The test was carried out in a teflon coated 48-well dialysis plate. Each well contained two separate chambers separated by a vertical semipermeable dialysis membrane with 8 kDa pores. A plasma sample with 1 μM of the test compound was placed into one of the chambers, and a buffer solution (pH=7.2) was placed in the other chamber. Over time, at 37° C. while rocking, passive diffusion of the unbound compound occurred and after 4 hours the equilibrium state between the chambers with plasma and the buffer solution was reached. The amount of free fraction was evaluated by HPLC-MS/MS following precipitation of the proteins by acetonitrile. Also, the study involved evaluation of stability of the substance during the 4-hour period and passive permeability through the dialysis membrane in the buffer by mass balance. Warfarin was used as the control compound. The results are presented in Table 4, from which it follows that the compounds of general formula 1.1 have a high degree of binding to human and rat plasma proteins.

The test system of the next data set is human plasma proteins. The data set is described as follows: Plasma protein binding by equilibrium dialysis, human. It is filed as in vitro ADME. Particulars: for Binding class / Extraction / Permeability: human; for Bound: human plasma diluted to 50%, 37° C.; for Bound / Extraction / Permeability: 1 μM, 4 h; for Permeability: dialysis membrane. As to the method:
as §1

Another data set concerns HIV-1 (IIIB strain). In words: Anti-HIV cytoprotection assay (XTT), HIV-1 IIIB in CEM-SS cells. The data set is classed as cell-based. The conditions noted are these: CEM-SS cell line, read-out: Inhibitory activity (EC50) against HIV-1 (IIIB strain). The gist of the method: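 CEM-SS cells infected with a pre-titrated virus dose killing 85–95% of cells by day 6; protection from HIV-induced death read by XTT formazan. Compounds screened in triplicate at 30 and 10 nM, actives retested at 2 nM; AZT six-concentration curve on each plate as positive control.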

Like-named read-outs stand apart in the source and are kept apart here.

Consider `C[C@H]1CO[C@@H]2Cn3cc(C(=O)NCc4ncc(F)cc4F)c(=O)c(O)c3C(=O)N12` [Compound 1.1.17, (3S,11aR)-6-hydroxy-N-[(3,5-difluoropyridin-2-yl)methyl]-3-methyl-5,7-dioxo-2,3,5,7,11,11a-hexahydro[1,3]oxazolo[3,2-a]pyrido[1,2-d]pyrazine-8-carboxamide], for which, in the data set with rat plasma proteins, the Binding class result is “High”, the Bound is 99.9%, the Extraction stood at 108% and the Permeability came out at 90.9%. Also, in the data set with human plasma proteins, the Binding class result is “High”, the Bound was 98.8%, the Extraction stood at 94.6% and the Permeability turned out to be 84.8%. The EC50 in the data set with HIV-1 (IIIB strain) (Human immunodeficiency virus 1, IIIB, CEM-SS) turned out to be 0.24 nM.

As for `C[C@H]1CO[C@@H]2Cn3cc(C(=O)NCc4ccc(F)nc4F)c(=O)c(O)c3C(=O)N12` [Compound 1.1.19, (3S,11aR)-6-hydroxy-N-[(2,6-difluoropyridin-3-yl)methyl]-3-methyl-5,7-dioxo-2,3,5,7,11,11a-hexahydro[1,3]oxazolo[3,2-a]pyrido[1,2-d]pyrazine-8-carboxamide], in the data set with rat plasma proteins, the Binding class entry is “High”, the Bound was 98.9%, the Extraction came out at 94.5% and the Permeability is 83.8%. For the same molecule, in the data set with human plasma proteins, the Binding class result was “High”, the Bound was 99.0%, the Extraction is recorded as 95.0% and the Permeability was 84.0%. Moreover, the EC50 with HIV-1 (IIIB strain) was determined as 0.24 nM.

These data come from patent publication US20230020329A1, “Annelated 9-hydroxy-1,8-dioxo-1,3,4,8-tetrahydro-2H-pyrido[1,2-a]pyrazine-7-carboxamides as HIV integrase inhibitors, methods of preparation and application thereof” (priority 2019, published 2023).
